Results published in PubChem BioAssay (NCI).
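Compound exposure: 48 hours, 5 concentrations, 96-well plates. GI50 = concentration required for 50% inhibition of growth. TGI: concentration producing complete growth inhibition.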

Assays:
Test in all cases: NCI tumour cell line growth inhibition, 48 h
HL-60(TB) leukemia = system: HL-60(TB) leukemia
IGROV1 ovarian = system: IGROV1 ovarian
HCT-15 colon = system: HCT-15 colon
SW-620 colon = system: SW-620 colon
SK-MEL-2 melanoma = system: SK-MEL-2 melanoma
SK-MEL-5 melanoma = system: SK-MEL-5 melanoma
NCI/ADR-RES ovarian = system: NCI/ADR-RES ovarian
PC-3 prostate = system: PC-3 prostate
ACHN renal = system: ACHN renal
SF-295 CNS = system: SF-295 CNS
TK-10 renal = system: TK-10 renal
T-47D breast = system: T-47D breast
BT-549 breast = system: BT-549 breast
MDA-MB-435 = system: MDA-MB-435
NCI-H460 lung = system: NCI-H460 lung
SK-MEL-28 melanoma = system: SK-MEL-28 melanoma
NCI-H23 lung = system: NCI-H23 lung
UO-31 renal = system: UO-31 renal
786-0 renal = system: 786-0 renal
DU-145 prostate = system: DU-145 prostate
LOX IMVI melanoma = system: LOX IMVI melanoma
SNB-75 CNS = system: SNB-75 CNS
CCRF-CEM leukemia = system: CCRF-CEM leukemia
HS 578T breast = system: HS 578T breast
K-562 leukemia = system: K-562 leukemia
SR leukemia = system: SR leukemia
A549 NSCLC = system: A549 NSCLC
KM12 colon = system: KM12 colon
HT29 colon = system: HT29 colon
M14 melanoma = system: M14 melanoma
HOP-62 NSCLC = system: HOP-62 NSCLC
HOP-92 NSCLC = system: HOP-92 NSCLC
EKVX NSCLC = system: EKVX NSCLC
HCC-2998 colon = system: HCC-2998 colon
UACC-62 melanoma = system: UACC-62 melanoma
U251 CNS = system: U251 CNS
MDA-MB-231 breast = system: MDA-MB-231 breast
NCI-H226 lung = system: NCI-H226 lung
OVCAR-3 ovarian = system: OVCAR-3 ovarian
MOLT-4 leukemia = system: MOLT-4 leukemia
MCF7 breast = system: MCF7 breast
RXF 393 renal = system: RXF 393 renal
COLO 205 colon = system: COLO 205 colon
SK-OV-3 ovarian = system: SK-OV-3 ovarian
MALME-3M melanoma = system: MALME-3M melanoma
OVCAR-5 ovarian = system: OVCAR-5 ovarian
SF-268 CNS = system: SF-268 CNS
RPMI-8226 leukemia = system: RPMI-8226 leukemia
NCI-H522 lung = system: NCI-H522 lung
OVCAR-8 ovarian = system: OVCAR-8 ovarian
SN12C renal = system: SN12C renal
OVCAR-4 ovarian = system: OVCAR-4 ovarian
SNB-19 CNS = system: SNB-19 CNS
UACC-257 melanoma = system: UACC-257 melanoma
A498 renal = system: A498 renal
SF-539 CNS = system: SF-539 CNS
HCT-116 colon = system: HCT-116 colon
CAKI-1 renal = system: CAKI-1 renal

Molecule `COc1ccc(C(C)=C(c2ccc(OCCN3CCCCCC3)cc2)c2ccc(OCCN3CCCCCC3)cc2)cc1` has a GI50 (HL-60(TB) leukemia) of 1020 nM, a TGI (HL-60(TB) leukemia) of 2320 nM and a GI50 (IGROV1 ovarian) of 1870 nM. For the same molecule, the TGI (IGROV1 ovarian) was 4280 nM, the GI50 (HCT-15 colon) was 488 nM and the TGI (HCT-15 colon) was 1970 nM. For the same molecule, the GI50 (SW-620 colon) was 450 nM, the TGI (SW-620 colon) was 1480 nM and the GI50 (SK-MEL-2 melanoma) was 2950 nM. For the same molecule, the TGI (SK-MEL-2 melanoma) was 6340 nM, the GI50 (SK-MEL-5 melanoma) was 1310 nM and the TGI (SK-MEL-5 melanoma) was 3470 nM. The GI50 (NCI/ADR-RES ovarian) was 2070 nM, the TGI (NCI/ADR-RES ovarian) was 4550 nM and the GI50 (PC-3 prostate) was 1720 nM. It also gave a TGI (PC-3 prostate) of 4820 nM, a GI50 (ACHN renal) of 2090 nM and a TGI (ACHN renal) of 4370 nM. The GI50 (SF-295 CNS) was 447 nM, the TGI (SF-295 CNS) was 1310 nM and the GI50 (TK-10 renal) was 3120 nM. For the same molecule, the TGI (TK-10 renal) was 6730 nM, the GI50 (T-47D breast) was 628 nM and the TGI (T-47D breast) was 4550 nM. It also gave a GI50 (BT-549 breast) of 2030 nM, a TGI (BT-549 breast) of 4210 nM and a GI50 (MDA-MB-435) of 422 nM. For the same molecule, the TGI (MDA-MB-435) was 1170 nM, the GI50 (NCI-H460 lung) was 635 nM and the TGI (NCI-H460 lung) was 2180 nM. The GI50 (SK-MEL-28 melanoma) was 312 nM, the TGI (SK-MEL-28 melanoma) was 593 nM and the GI50 (NCI-H23 lung) was 2670 nM. The TGI (NCI-H23 lung) was 9520 nM, the GI50 (UO-31 renal) was 1780 nM and the TGI (UO-31 renal) was 3970 nM. It also gave a GI50 (786-0 renal) of 606 nM, a TGI (786-0 renal) of 1550 nM and a GI50 (DU-145 prostate) of 2280 nM. The TGI (DU-145 prostate) was 5730 nM, the GI50 (LOX IMVI melanoma) was 177 nM and the TGI (LOX IMVI melanoma) was 427 nM. The GI50 (SNB-75 CNS) was 2060 nM, the TGI (SNB-75 CNS) was 5230 nM and the GI50 (CCRF-CEM leukemia) was 503 nM. It also gave a TGI (CCRF-CEM leukemia) of 4320 nM, a GI50 (HS 578T breast) of 1120 nM and a TGI (HS 578T breast) of 4560 nM. The GI50 (K-562 leukemia) was 338 nM, the TGI (K-562 leukemia) was 825 nM and the GI50 (SR leukemia) was 306 nM. It also gave a TGI (SR leukemia) of 773 nM, a GI50 (A549 NSCLC) of 1230 nM and a TGI (A549 NSCLC) of 3850 nM. The GI50 (KM12 colon) was 1220 nM, the TGI (KM12 colon) was 4010 nM and the GI50 (HT29 colon) was 545 nM. The TGI (HT29 colon) was 2100 nM, the GI50 (M14 melanoma) was 270 nM and the TGI (M14 melanoma) was 515 nM. It also gave a GI50 (HOP-62 NSCLC) of 1070 nM, a TGI (HOP-62 NSCLC) of 3490 nM and a GI50 (HOP-92 NSCLC) of 843 nM. For the same molecule, the TGI (HOP-92 NSCLC) was 3890 nM, the GI50 (EKVX NSCLC) was 2340 nM and the TGI (EKVX NSCLC) was 7200 nM. For the same molecule, the GI50 (HCC-2998 colon) was 540 nM, the TGI (HCC-2998 colon) was 2000 nM and the GI50 (UACC-62 melanoma) was 869 nM. For the same molecule, the TGI (UACC-62 melanoma) was 2050 nM, the GI50 (U251 CNS) was 524 nM and the TGI (U251 CNS) was 1830 nM. The GI50 (MDA-MB-231 breast) was 1360 nM, the TGI (MDA-MB-231 breast) was 3950 nM and the GI50 (NCI-H226 lung) was 2320 nM. The TGI (NCI-H226 lung) was 5330 nM, the GI50 (OVCAR-3 ovarian) was 1870 nM and the TGI (OVCAR-3 ovarian) was 4070 nM. For the same molecule, the GI50 (MOLT-4 leukemia) was 436 nM, the TGI (MOLT-4 leukemia) was 1290 nM and the GI50 (MCF7 breast) was 177 nM. The TGI (MCF7 breast) was 579 nM, the GI50 (RXF 393 renal) was 646 nM and the TGI (RXF 393 renal) was 2560 nM. The GI50 (COLO 205 colon) was 375 nM, the TGI (COLO 205 colon) was 948 nM and the GI50 (SK-OV-3 ovarian) was 2550 nM. It also gave a TGI (SK-OV-3 ovarian) of 5230 nM, a GI50 (MALME-3M melanoma) of 300 nM and a TGI (MALME-3M melanoma) of 616 nM. It also gave a GI50 (OVCAR-5 ovarian) of 2440 nM, a TGI (OVCAR-5 ovarian) of 8260 nM and a GI50 (SF-268 CNS) of 1710 nM. The TGI (SF-268 CNS) was 5070 nM, the GI50 (RPMI-8226 leukemia) was 443 nM and the TGI (RPMI-8226 leukemia) was 1090 nM. For the same molecule, the GI50 (NCI-H522 lung) was 2650 nM, the TGI (NCI-H522 lung) was 6100 nM and the GI50 (OVCAR-8 ovarian) was 2620 nM. For the same molecule, the TGI (OVCAR-8 ovarian) was 6820 nM, the GI50 (SN12C renal) was 2090 nM and the TGI (SN12C renal) was 4800 nM. It also gave a GI50 (OVCAR-4 ovarian) of 2430 nM, a TGI (OVCAR-4 ovarian) of 5900 nM and a GI50 (SNB-19 CNS) of 1360 nM. It also gave a TGI (SNB-19 CNS) of 4020 nM, a GI50 (UACC-257 melanoma) of 587 nM and a TGI (UACC-257 melanoma) of 1590 nM. For the same molecule, the GI50 (A498 renal) was 2200 nM, the TGI (A498 renal) was 4410 nM and the GI50 (SF-539 CNS) was 1020 nM. The TGI (SF-539 CNS) was 2990 nM, the GI50 (HCT-116 colon) was 369 nM and the TGI (HCT-116 colon) was 1110 nM. The GI50 (CAKI-1 renal) was 1390 nM and the TGI (CAKI-1 renal) was 3730 nM.

With `CC1COc2c(N3CCN(C)CC3)c(F)cc3c(=O)c(C(=O)N/N=C/c4cc[nH]c4)cn1c23` (configuration not stated) the GI50 (HL-60(TB) leukemia) was 674 nM, the TGI (HL-60(TB) leukemia) was 2590 nM and the GI50 (SW-620 colon) was 1300 nM. The TGI (SW-620 colon) was 2620 nM, the GI50 (SK-MEL-2 melanoma) was 1570 nM and the TGI (SK-MEL-2 melanoma) was 3010 nM. The GI50 (SK-MEL-5 melanoma) was 1400 nM, the TGI (SK-MEL-5 melanoma) was 2710 nM and the GI50 (NCI/ADR-RES ovarian) was greater than 100000 nM. For the same molecule, the TGI (NCI/ADR-RES ovarian) was greater than 100000 nM, the GI50 (TK-10 renal) was 5400 nM and the TGI (TK-10 renal) was 96100 nM. The GI50 (MDA-MB-435) was 1520 nM, the TGI (MDA-MB-435) was 2910 nM and the GI50 (NCI-H460 lung) was 767 nM. For the same molecule, the TGI (NCI-H460 lung) was 2080 nM, the GI50 (SK-MEL-28 melanoma) was 1470 nM and the TGI (SK-MEL-28 melanoma) was 2830 nM. For the same molecule, the GI50 (UO-31 renal) was 2710 nM, the TGI (UO-31 renal) was greater than 100000 nM and the GI50 (786-0 renal) was 1420 nM. The TGI (786-0 renal) was 2850 nM, the GI50 (LOX IMVI melanoma) was 715 nM and the TGI (LOX IMVI melanoma) was 2070 nM. It also gave a GI50 (SNB-75 CNS) of 1480 nM, a TGI (SNB-75 CNS) of 3470 nM and a GI50 (CCRF-CEM leukemia) of 959 nM. It also gave a TGI (CCRF-CEM leukemia) of 2790 nM, a GI50 (K-562 leukemia) of 699 nM and a TGI (K-562 leukemia) of 2350 nM. The GI50 (SR leukemia) was 841 nM, the TGI (SR leukemia) was 3160 nM and the GI50 (M14 melanoma) was 1670 nM. It also gave a TGI (M14 melanoma) of 3120 nM, a GI50 (HOP-92 NSCLC) of 497 nM and a TGI (HOP-92 NSCLC) of 36000 nM. For the same molecule, the GI50 (HCC-2998 colon) was 518 nM, the TGI (HCC-2998 colon) was 1890 nM and the GI50 (UACC-62 melanoma) was 1700 nM. For the same molecule, the TGI (UACC-62 melanoma) was 3160 nM, the GI50 (U251 CNS) was 614 nM and the TGI (U251 CNS) was 1980 nM. The GI50 (MDA-MB-231 breast) was 1480 nM, the TGI (MDA-MB-231 breast) was 3000 nM and the GI50 (MOLT-4 leukemia) was 502 nM. The TGI (MOLT-4 leukemia) was 2100 nM, the GI50 (MCF7 breast) was 417 nM and the TGI (MCF7 breast) was 1650 nM. The GI50 (RXF 393 renal) was 1060 nM, the TGI (RXF 393 renal) was 2350 nM and the GI50 (COLO 205 colon) was 1270 nM. For the same molecule, the TGI (COLO 205 colon) was 2600 nM, the GI50 (MALME-3M melanoma) was 1040 nM and the TGI (MALME-3M melanoma) was 2570 nM. For the same molecule, the GI50 (RPMI-8226 leukemia) was 2190 nM, the TGI (RPMI-8226 leukemia) was 4580 nM and the GI50 (NCI-H522 lung) was 1240 nM. It also gave a TGI (NCI-H522 lung) of 2640 nM, a GI50 (UACC-257 melanoma) of 1640 nM and a TGI (UACC-257 melanoma) of 3120 nM. It also gave a GI50 (A498 renal) of 2220 nM, a TGI (A498 renal) greater than 100000 nM and a GI50 (SF-539 CNS) of 1280 nM. For the same molecule, the TGI (SF-539 CNS) was 2610 nM, the GI50 (HCT-116 colon) was 712 nM and the TGI (HCT-116 colon) was 2000 nM.
